Type in all cases: cell-based
Assay [1] concerns Ba/F3 parental cells. The assay is described as follows: Cell growth inhibitory activity assay (CellTiter-Glo), Ba/F3 parental cells. Conditions: Mus musculus, BaF3, 72 h, CTG cell viability, read-out: IC50 Ba/F3 BCR-ABL1 Parental. In a few lines: (§1)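 Ba/F3 parental cells or Ba/F3 lines lentivirally transduced with WT or mutant BCR-ABL1, seeded overnight then exposed to serially diluted compound 72 h at 37 °C, 5% CO2. Viability by CellTiter-Glo ATP luminescence with a T0 plate; 0.5% DMSO controls; IC50 from four-parameter nonlinear fit.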

In assay [2] the target is T1, Ba/F3 BCR-ABL1 T315I (Homo sapiens, UniProt P00519+P11274, T315I).
T1 construct: BCR (N-terminal fusion partner of the oncoprotein); expressed in transfected cells; host or cells: Ba/F3 (lentiviral transduction, monoclonal line)
The assay is described as follows: Cell growth inhibitory activity assay (CellTiter-Glo), Ba/F3 BCR-ABL1 T315I cells. To be noted: 72 h, CTG cell viability. In a few lines: as §1

For assay [3], the target named is T2, Ba/F3 BCR-ABL1 WT (Homo sapiens, UniProt P00519+P11274).
T2 construct: BCR (N-terminal fusion partner of the oncoprotein); expressed in transfected cells; host or cells: Ba/F3 (lentiviral transduction, monoclonal line)
Put plainly: Cell growth inhibitory activity assay (CellTiter-Glo), Ba/F3 BCR-ABL1 WT cells. Conditions: 72 h, CTG cell viability. The method, boiled down: as §1

For assay [4], the system named is K562 cells. Put plainly: Cell growth inhibitory activity assay (CellTiter-Glo), K562 cells. Conditions: Homo sapiens, 72 h, CTG cell viability. In a few lines:
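Growth inhibition of human K562 cells, sourced from Nanjing Kebai (CBP60529), was assessed with Promega's CellTiter-Glo kit, which measures viability through ATP quantification. Log-phase cells went into the inner wells of 96-well plates, with PBS in edge wells, incubated overnight at 37 °C and 5% CO2, then exposed to serially diluted compound for 72 h.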

Regarding `C[C@@H]1COCc2nc3cc(C(=O)Nc4ccc(OC(F)(F)Cl)cc4)cc(-c4cnc5c(c4)C(=O)CC5)c3n21` [T-58, (R)-N-(4-(chlorodifluoromethoxy)phenyl)-4-methyl-6-(5-oxo-6,7-dihydro-5H-cyclopenta[b]pyridin-3-yl)-3,4-dihydro-1H-benzo[4,5]imidazo[2,1-c][1,4]oxazine-8-carboxamide], the IC50 is > 1000 nM in assay [1], 5 to 50 nM in assay [2], ≤ 5 nM in assay [3] and ≤ 5 nM in assay [4].

With `C[C@@H]1COCc2nc3cc(C(=O)Nc4ccc(OC(F)(F)Cl)cc4)cc(-c4cnc5c(c4)C(=O)/C(=C\N(C)C)C5)c3n21` [T-59, (R,Z)-N-(4-(chlorodifluoromethoxy)phenyl)-6-(6-((dimethylamino)methylene)-5-oxo-6,7-dihydro-5H-cyclopenta[b]pyridin-3-yl)-4-methyl-3,4-dihydro-1H-benzo[4,5]imidazo[2,1-c][1,4]oxazine-8-carboxamide], the IC50 is > 1000 nM in assay [1], 50 to 1000 nM in assay [2], ≤ 5 nM in assay [3] and ≤ 5 nM in assay [4].

As to `C[C@@H]1COCc2nc3cc(C(=O)Nc4ccc(OC(F)(F)Cl)cc4)cc(-c4cnc5c(c4)-c4n[nH]cc4C5=O)c3n21` [T-60, (R)-N-(4-(chlorodifluoromethoxy)phenyl)-4-methyl-6-(4-oxo-2,4-dihydropyrazolo[3',4':3,4]cyclopenta[1,2-b]pyridin-7-yl)-3,4-dihydro-1H-benzo[4,5]imidazo[2,1-c][1,4]oxazine-8-carboxamide], the IC50 in assay [1] is > 1000 nM; in assay [2] it was > 1000 nM; in assay [3], ≤ 5 nM; in assay [4] it was ≤ 5 nM.

Take `C[C@@H]1COCc2nc3cc(C(=O)Nc4ccc(OC(F)(F)Cl)cc4)cc(-c4ccc5c(c4)C(=O)N(C)C5)c3n21` [T-61, (R)-N-(4-(chlorodifluoromethoxy)phenyl)-4-methyl-6-(2-methyl-3-oxoisoindolin-5-yl)-3,4-dihydro-1H-benzo[4,5]imidazo[2,1-c][1,4]oxazine-8-carboxamide]: the IC50 in assay [1] is > 1000 nM; in assay [2] it was 5 to 50 nM; in assay [3], ≤ 5 nM; in assay [4] it was ≤ 5 nM.

In the case of `C[C@@H]1COCc2nc3cc(C(=O)Nc4ccc(OC(F)(F)Cl)cc4)cc(-c4ccc5c(c4)C(=O)N(C)C5=O)c3n21` [T-62, (R)-N-(4-(chlorodifluoromethoxy)phenyl)-4-methyl-6-(2-methyl-1,3-dioxoisoindolin-5-yl)-3,4-dihydro-1H-benzo[4,5]imidazo[2,1-c][1,4]oxazine-8-carboxamide], the IC50 is > 1000 nM in assay [1], 50 to 1000 nM in assay [2], 5 to 50 nM in assay [3] and ≤ 5 nM in assay [4].

For `C[C@@H]1COCc2nc3cc(C(=O)Nc4ccc(OC(F)(F)Cl)cc4)cc(-c4cnc5c(c4)-c4nn(-c6cccnc6)cc4C5)c3n21` [T-63], the IC50 is > 1000 nM in assay [1], > 1000 nM in assay [2], ≤ 5 nM in assay [3] and ≤ 5 nM in assay [4].

For `C[C@@H]1COCc2nc3cc(C(=O)Nc4ccc(OC(F)(F)Cl)cc4)cc(-c4cnc5c(c4)-c4nn(-c6ccncc6)cc4C5)c3n21` [T-64], the IC50 was > 1000 nM in assay [1], > 1000 nM in assay [2], ≤ 5 nM in assay [3] and ≤ 5 nM in assay [4].

On to `COc1nc(OC)nc(-n2cc3c(n2)-c2cc(-c4cc(C(=O)Nc5ccc(OC(F)(F)Cl)cc5)cc5nc6n(c45)[C@H](C)COC6)cnc2C3)n1` [T-70, (R)-N-(4-(chlorodifluoromethoxy)phenyl)-6-(2-(4,6-dimethoxy-1,3,5-triazin-2-yl)-2,4-dihydropyrazolo[3',4':3,4]cyclopenta[1,2-b]pyridin-7-yl)-4-methyl-3,4-dihydro-1H-benzo[4,5]imidazo[2,1-c][1,4]oxazine-8-carboxamide], for which the IC50 in assay [1] was > 1000 nM; in assay [2], 5 to 50 nM; in assay [3], ≤ 5 nM; in assay [4], ≤ 5 nM.

Turning to `C[C@@H]1COCc2nc3cc(C(=O)Nc4ccc(OC(F)(F)Cl)cc4)cc(-c4cnc5c(c4)-c4nn(-c6nccc(C(F)(F)F)n6)cc4C5)c3n21` [T-72, (R)-N-(4-(chlorodifluoromethoxy)phenyl)-4-methyl-6-(2-(4-(trifluoromethyl)pyrimidin-2-yl)-2,4-dihydropyrazolo[3',4':3,4]cyclopenta[1,2-b]pyridin-7-yl)-3,4-dihydro-1H-benzo[4,5]imidazo[2,1-c][1,4]oxazine-8-carboxamide], the IC50 in assay [1] is > 1000 nM; in assay [2] it was ≤ 5 nM; in assay [3], ≤ 5 nM; in assay [4] it was ≤ 5 nM.

As to `Cc1cnc(-n2cc3c(n2)-c2cc(-c4cc(C(=O)Nc5ccc(OC(F)(F)Cl)cc5)cc5nc6n(c45)[C@H](C)COC6)cnc2C3)nc1` [T-74, (R)-N-(4-(chlorodifluoromethoxy)phenyl)-4-methyl-6-(2-(5-methylpyrimidin-2-yl)-2,4-dihydropyrazolo[3',4':3,4]cyclopenta[1,2-b]pyridin-7-yl)-3,4-dihydro-1H-benzo[4,5]imidazo[2,1-c][1,4]oxazine-8-carboxamide], the IC50 was > 1000 nM in assay [1], ≤ 5 nM in assay [2], ≤ 5 nM in assay [3] and ≤ 5 nM in assay [4].

Take `Cc1cc(C(F)(F)F)nc(-n2cc3c(n2)-c2cc(-c4cc(C(=O)Nc5ccc(OC(F)(F)Cl)cc5)cc5nc6n(c45)[C@H](C)COC6)cnc2C3)n1` [T-75, (R)-N-(4-(chlorodifluoromethoxy)phenyl)-4-methyl-6-(2-(4-methyl-6-(trifluoromethyl)pyrimidin-2-yl)-2,4-dihydropyrazolo[3',4':3,4]cyclopenta[1,2-b]pyridin-7-yl)-3,4-dihydro-1H-benzo[4,5]imidazo[2,1-c][1,4]oxazine-8-carboxamide]: the IC50 in assay [1] was > 1000 nM; in assay [2], ≤ 5 nM; in assay [3] it was ≤ 5 nM; in assay [4], ≤ 5 nM.

As to `COc1cnc(-n2cc3c(n2)-c2cc(-c4cc(C(=O)Nc5ccc(OC(F)(F)Cl)cc5)cc5nc6n(c45)[C@H](C)COC6)cnc2C3)nc1` [T-77, (R)-N-(4-(chlorodifluoromethoxy)phenyl)-6-(2-(5-methoxypyrimidin-2-yl)-2,4-dihydropyrazolo[3',4':3,4]cyclopenta[1,2-b]pyridin-7-yl)-4-methyl-3,4-dihydro-1H-benzo[4,5]imidazo[2,1-c][1,4]oxazine-8-carboxamide], the IC50 was > 1000 nM in assay [1], ≤ 5 nM in assay [2], ≤ 5 nM in assay [3] and ≤ 5 nM in assay [4].

For `C[C@@H]1COCc2nc3cc(C(=O)Nc4ccc(OC(F)(F)Cl)cc4)cc(-c4cnc5c(c4)-c4nn(-c6ncc(C(F)(F)F)cn6)cc4C5)c3n21` [T-79, (R)-N-(4-(chlorodifluoromethoxy)phenyl)-4-methyl-6-(2-(5-(trifluoromethyl)pyrimidin-2-yl)-2,4-dihydropyrazolo[3',4':3,4]cyclopenta[1,2-b]pyridin-7-yl)-3,4-dihydro-1H-benzo[4,5]imidazo[2,1-c][1,4]oxazine-8-carboxamide], the IC50 in assay [1] was > 1000 nM; in assay [2] it was ≤ 5 nM; in assay [3] it was ≤ 5 nM; in assay [4] it was ≤ 5 nM.

The values are drawn from patent EP4768484A1, “HETEROCYCLIC FUSED RING COMPOUND, AND COMPOSITION AND USE THEREOF” (Shenzhen TargetRx, Inc., priority 2023, dated 2025).
